Assay results: US20240341301A1 (The Regents of the University of Michigan, priority 2023, published 2024)

Experiments:
Irg1 [1] = test: Irg1 mRNA transcript expression in preserved murine donor hearts; set-up: species or system mouse; conditions: 16 hours preservation without reperfusion and during ex vivo perfusion
Description: (§1) Male and female WT or Irg1^−/− mice (Jackson laboratories, Bar Harbor, ME) were anesthetized intraperitoneally with 80 mg/kg ketamine and 5 mg/kg xylazine, anticoagulated with heparin (2,000 U/kg iv), and the heart was rapidly exposed through a sternal incision. The aorta was cannulated and retrograde perfused in-situ with HTK solution±HDAC inhibitors. After cannulation, the heart dissected free, the left atrium was opened. For 4-OI (Cayman Chemical, 25374) experiments, donor mice were treated 4-OI (dissolved in 40% β-Cyclodextrin, 50 mg/kg intraperitoneally) or vehicle control (40% β-Cyclodextrin intraperitoneally) 2 hours prior to donor heart procurement. After dissection, the heart was stored at 4° C. with HTK or HTK with VPA for a pre-designated duration. The hearts were then mounted on a Radnoti mouse Langendorff apparatus (ADInstruments inc., Colorado Springs, CO) in constant-pressure mode (˜70 mmHg) with a modified Krebs-Henseleit buffer (KHB; in mM: 118 NaCl, 4.7 KCl, 1.25 CaCl2), 1.66 MgSO4, 24.88 NaHCO3, 1.18 KH2PO4, 5.55 glucose, and 2.0 Na-pyruvate). A balloon was placed in the LV through the left atrium and left ventricular diastolic pressure was set to ˜8 mmHg at initiation. The heart was perfused with modified Krebs-Henseleit buffer for 30 min to stabilize and then hemodynamics measurements were recorded. Myocardial temperature was maintained at 37° C. LabChart software (ADInstruments inc., Colorado Springs, CO) was used to record ventricular function, perfusion pressures, cardiac chamber temperature and myocardial temperature. After perfusing the heart for 60 minutes, the heart was removed from the ex-vivo perfusion apparatus for specimen collection. Tissue was immediately placed in liquid N2 or treated with 4% formalin.

murine hearts = test: Mass spectrometry metabolomics of preserved or transplanted murine hearts; set-up: species or system mouse
Description: as §1
(§2) Cardiac grafts procured from WT C57Bl/6J mice following arrest with cold (4° C.) HTK±VPA were transplanted into the right neck of sex-matched syngeneic C57BL/6J recipient mice following 16 hours of cold (4° C.) preservation in corresponding HTK±VPA solution as previously described (59). A cuff technique was used to connect the recipient right common carotid artery and right external jugular vein to the donor ascending aorta and pulmonary artery, respectively. Following reperfusion in the recipient, successful grafts were expected to resume a regular heartbeat. At 24 hours after reperfusion, the surgical incision was reopened and a small conductance catheter was introduced into the LV to measure contractility and relaxation.
Metabolomics measurements were performed by the Michigan Regional Comprehensive Metabolomics Resource Core (Ann Arbor, MI, USA).

murine donor hearts = test: Murine donor heart tissue staining and Western blot (oxidative stress, antioxidant proteins, cell death); set-up: species or system mouse
Description: as §1

IRG1 [2] = test: IRG1 enhancer ChIP-qPCR and mRNA expression in human donor heart tissue
Description: Pig hearts underwent ex-vivo perfusion after preservation for 4 or 10 hours. Approval for human heart procurement was obtained from the University of Michigan Institutional Review Board (HUM00131275). Human donor hearts from deceased brain death donors were procured as per standard clinical protocols from the Gift of Life Michigan (GOLM) organ procurement facility. Myocardial biopsies (˜5 mm^3) of LV were biopsied immediately after cardioplegic arrest (0 h) and after 8 hours (8 h) of cold storage in a cooler containing ice. […] Causes of death were stroke (n=4), trauma (n=2), drug overdose (n=1), and cardiac arrest (n=1). Heart tissue were either fixed in formalin or snap frozen in liquid N2 for later analysis.

[3] = system: transplanted murine donor hearts; test: Murine heterotopic syngeneic heart transplantation; format: in vivo, mouse
Description: as §2
Blood from recipient mice was centrifuged at 3000 g in 4° C. for 10 minutes. Serum was aliquoted and snap-frozen. Serum cTnT, cTnI, TNFα, IL-6, IP10 and MIG concentrations were measured using Sigma-Aldrich MILLIPLEX kits (Cat. No.: MCYTMAG, MCVD2MAG). Pig arterial perfusate was centrifuged at 3000 g in 4° C. for 10 minutes. The abundance of cTnI, IL-1β, IL-6 and TNF-α was detected using Sigma MILLIPLEX kit (Cat. No.: MCVD2MAG, PCYTMAG).

[4] = cold static preservation as well as transplantation
[5] = following murine heart transplantation
[6] = mice hearts during cardiac preservation
[7] = 16 hours preservation, ex-vivo perfusion
[8] = ex vivo perfused WT murine hearts
[9] = 16 h cold preservation, 24 h reperfusion in recipient
[10] = recipient serum after transplantation

## CCCC(CCC)C(=O)O [VPA, 2-Propyl-pentanoic acid]
Irg1 [1]
  Irg1 transcript expression: increased
Murine hearts; [4]
  itaconate: increased
  succinate: decreased
Murine hearts; [5]
  fumarate: increased
  glutamate: decreased
  malate: increased
Murine hearts; [6]
  fumarate concentration in VPA-treated group: 29.0±7.5 pmol/mg tissue
  itaconate concentration in VPA-treated group: 8.8±0.8 pmol/mg tissue
Murine hearts; murine hearts during cold preservation
  acetyl-CoA, citrate, α-ketoglutarate, fumarate, or malate abundance: no changes
Murine donor hearts; [7]
  overall oxidative stress (DHE staining): decreased
  oxidative DNA damage (8OHdG staining): decreased
Murine donor hearts; Irg1−/− hearts
  NRF2 nuclear translation effect: greatly reduced
  benefit on TUNEL staining in α-actinin+ cardiomyocytes: lost
Murine donor hearts; Irg1−/− murine hearts
  antioxidant protein expression: no increase
Murine donor hearts; WT hearts
  NRF2 nuclear translation from the cytoplasm: induced
Murine donor hearts; [8]
  protein abundance of HO1: upregulated
  protein abundance of SOD1: upregulated
  protein abundance of SOD2: not
  protein abundance of total NRF2: upregulated
Murine donor hearts; preserved and transplanted murine hearts
  ratio of reduced (GSH) versus oxidized glutathione (GSSG): increased
Murine donor hearts; wild type hearts
  TUNEL staining in α-actinin+ cardiomyocytes: reduced
IRG1 [2]; 8-hours of preservation compared to HTK alone
  IRG1 enhancer activity (H3K27ac ChIP-qPCR): increased
IRG1 [2]; human hearts after preservation
  IRG1 mRNA transcript expression: increased
[3]; [9]
  improvement of in vivo donor heart contractility (max dP/dt) compared to standard HTK solution alone: 265%
  improvement of in vivo donor heart relaxation (min dP/dt) compared to standard HTK solution alone: 250%
[3]; TUNEL
  cell death in transplanted heart tissue: reduced
[3]; [10]
  serum concentration of IL-6: reduced
  serum concentration of IP-10: reduced
  serum concentration of MIG: reduced
  serum concentration of TNFα: reduced
  serum troponin I: reduced
  serum troponin T: reduced
[3]; transplanted heart tissue
  leukocyte infiltration: reduced
